# Laboratory results from publication PMC6639804 (The Biochemical journal, 2018).
# Molecular target: T1, Cnx1E (Arabidopsis thaliana, UniProt Q39054)
# T1 sequence (Q39054 1-452): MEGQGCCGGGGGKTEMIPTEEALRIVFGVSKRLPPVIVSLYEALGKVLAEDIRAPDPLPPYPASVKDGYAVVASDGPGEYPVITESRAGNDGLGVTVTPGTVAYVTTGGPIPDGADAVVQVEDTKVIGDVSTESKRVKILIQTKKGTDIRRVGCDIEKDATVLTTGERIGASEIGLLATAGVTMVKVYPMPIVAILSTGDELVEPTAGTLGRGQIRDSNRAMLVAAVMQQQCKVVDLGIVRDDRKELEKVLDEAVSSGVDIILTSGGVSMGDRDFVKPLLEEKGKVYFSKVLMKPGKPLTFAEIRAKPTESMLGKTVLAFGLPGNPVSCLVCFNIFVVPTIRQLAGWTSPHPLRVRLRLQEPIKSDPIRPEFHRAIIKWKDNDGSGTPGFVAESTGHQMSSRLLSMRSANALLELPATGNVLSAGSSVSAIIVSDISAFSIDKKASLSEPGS
# Test: co-purified ligand, FormA-based HPLC
# Assay type: binding
# Details: co-purified from E. coli RK5206, not added; phosphodiesterase I treated sample
compound,measurement,value
Nc1nc2c(c(=O)[nH]1)N[C@H]1C(S)=C(S)[C@@H](COP(=O)(O)OP(=O)(O)OC[C@H]3O[C@@H](n4cnc5c(N)ncnc54)[C@H](O)[C@@H]3O)O[C@H]1N2 [MPT-AMP],binding stoichiometry,0.0136 +/− 0.0048
